The subject of series [1] is aged monkeys. As to the kind of experiment: blood pressure study in awake chaired aged monkeys. The class given is in vivo, rhesus monkeys. Particulars: for Systolic Blood Pressure, change vs placebo control: mean; for drop in systolic blood pressure: at the high doses optimal for memory improvement. The protocol: In order to measure blood pressure in the awake, behaving monkey, three aged animals were adapted to primate chair restraint for several weeks. Blood pressure was measured using a pediatric digital blood pressure monitor. Each day the animals were […] immediately injected with the drug or saline. Fifteen minutes later, three blood pressure measurements were taken. […] Following memory testing, three more blood pressure measurements were taken before the monkey was returned to its home cage. The average blood pressure response before and after memory testing was calculated; drug response was compared to the previous response on saline Drug administration was initiated only after a stable blood pressure baseline was apparent.

The subject of series [2] is aged monkeys. Particulars: for Sedation Score (0-IV): mean.
From the text: Sedation was rated using a 5 point scale where 0=normal level of arousal, I=quiet, II=sedated, III=intermittent sleeping and IV=too sedated to test.
The target in series [3] is alpha-2R subtype. The following applies: cited from earlier work.
A further series addresses alpha-2I subtype. Particulars: second figure of the alpha-2R/alpha-2I Ki ratio; cited from earlier work.
The test system of series [4] is aged monkeys. Kind of series: variable delayed response task (spatial working memory) in aged monkeys. Particulars: for Delayed Response Performance (% change from placebo control): mean; for dose range in which effective: memory improvement, summary statement; for average optimal dose for improving memory: aged monkeys; for average optimal dose for improving memory / Optimal dose: equimolar clonidine dose; for aged monkeys with improved memory: applicants' experiments; for Percent Improvement: at individual optimal dose; for Optimal dose: i.m.

The subject of another series is rhesus monkeys. The following applies: catecholamine-depleted association cortex; cited from earlier work.
For series [5] the following is noted: clinical blood pressure studies; cited from earlier work.
The subject of series [6] is aged monkeys. Particulars: early experiments, Science 230, 1273 (1985); cited from earlier work.
In series [7] the test system is aged monkeys. The following applies: 0.01 to 0.09 mg/kg; background; cited from earlier work.
For a further series, the system named is Korsakoff patients. Particulars: about 0.01 to 0.02 mg/kg/day for two weeks; cited from earlier work.
The test system of another series is Alzheimer patients. The following applies: acute administration; study was terminated; cited from earlier work.
The subject of series [8] is alpha-2R subtype. The following applies: alpha-2R vs alpha-2I.
From the text: Receptor binding data provides evidence for two distinct alpha-2 receptor sub-types, C. […] One subtype binds with high affinity to the antagonist idazoxan, and is referred to as the "alpha-2I subtype"; the other subtype binds with high affinity to both idazoxan and to the antagonist, rauwolscine, and is referred to as the "alpha-2R subtype".
The mark [9] stands for this setting: dose .0001 mg/kg i.m. (equimolar clonidine dose).
Setting [10] is: dose .001 mg/kg i.m. (equimolar clonidine dose).
The mark [11] stands for this setting: dose .01 mg/kg i.m. (equimolar clonidine dose).
Setting [12] is: dose .05 mg/kg i.m. (equimolar clonidine dose).

Where two headings read alike, the source gives them in different places.

The Ki is a dissociation constant, usually derived from enzyme kinetics or from competition with a known ligand.

For `N=C(N)N/N=C/c1c(Cl)cccc1Cl` [Guanabenz, guanabenz], the “hypotensive effects compared with the other agonists” value in the series with aged monkeys [1] (rhesus monkey, in vivo) is listed as “more hypotensive side effects than guanfacine, but fewer side effects than clonidine”. Also, the “Sedation Score (0-IV)” value in the series on aged monkeys [2] (dose .00000005 mg/kg i.m.) is reported as 0; with aged monkeys [2] (dose .00001 mg/kg i.m.), 0; with aged monkeys [2] (dose .0001 mg/kg i.m.), 0; with aged monkeys [2] (dose .001 mg/kg i.m.) it was 0; in the series with aged monkeys [2] (dose .01 mg/kg i.m.), 0; in the series on aged monkeys [2] (dose .05 mg/kg i.m.) it was “I”. For the same compound, the Ki at alpha-2R subtype [3] is 36.7 nM; at alpha-2I subtype, 5.3 nM. For the same compound, the “Delayed Response Performance (% change from placebo control)” value in the series with aged monkeys [4] (dose .00000005 mg/kg i.m. (equimolar clonidine dose)) is listed as “+8%”; with aged monkeys [4] (dose .00001 mg/kg i.m. (equimolar clonidine dose)), -1%; in the series on aged monkeys [4] (setting [9]), “+1%”; in the series with aged monkeys [4] (setting [10]) it was -2%; in the series with aged monkeys [4] (setting [11]), “+7%”; in the series with aged monkeys [4] (setting [12]), “+7%”. The “dose range in which effective” value in the series with aged monkeys [4] is recorded as “picogram/kg range”. Moreover, in the series on aged monkeys [4] (monkey #445, FIG. 3), the “doses at which memory improved” value was 5e-05 to 10 µg/kg.
As to `CN1CCc2cccc3c2[C@H]1Cc1ccc(O)c(O)c1-3` [apomorphine], the “effect on behavioral deficit in spatial delayed alternation” value (shortened to “effect on behavioral deficit”) in the series on rhesus monkeys was “pharmacologically reversed”.
`N=C(N)NC(=O)Cc1c(Cl)cccc1Cl` [Guanfacine, guanfacine]: the “Systolic Blood Pressure, change vs placebo control” value (“Systolic Blood Pressure, change” below) is “+3 mm Hg” in the series with aged monkeys [1] (dose .0001 mg/kg i.m.), “+6 mm Hg” with aged monkeys [1] (dose .001 mg/kg i.m.), -11 mm Hg with aged monkeys [1] (dose .01 mg/kg i.m.) and -21 mm Hg in the series with aged monkeys [1] (dose .05 mg/kg i.m.). Besides, the “average change in systolic blood pressure” value in the series on aged monkeys [1] (low, memory-improving doses) was “+6 mm Hg”. In addition, the “Sedation Score” value in the series with aged monkeys [2] (rhesus monkey, in vivo) amounted to 0. This compound also yielded a sedation scores with aged monkeys [2] (rhesus monkey, in vivo) of 0. In addition, the Ki was 340 nM on alpha-2R subtype [3] and 22.6 nM at alpha-2I subtype. In [5], the “potency relative to clonidine” value is on record as 1/10. Further, the “average optimal dose for improving memory” value (“average optimal dose” for short) with aged monkeys [4] was “about 0.001 mg/kg”. For the same compound, the “aged monkeys with improved memory” value in the series with aged monkeys [4] is 11/11. Also, the “Delayed Response Performance (% change from placebo control)” value was “+9%” in the series with aged monkeys [4] (setting [9]), “+10%” in the series on aged monkeys [4] (setting [10]), “+10%” in the series with aged monkeys [4] (setting [11]) and -6% in the series on aged monkeys [4] (setting [12]). For the same compound, the “duration of memory effects” value in the series on aged monkeys [4] (low doses) is on record as “up to four days”. Moreover, the “dose range in which effective” value with aged monkeys [4] is on record as “nanogram/kg range”. Also, the “Percent Improvement” value in the series with aged monkeys [4] (monkey #107) came to 20%; with aged monkeys [4] (monkey #113), 23%; with aged monkeys [4] (monkey #121), 10%; with aged monkeys [4] (monkey #124) it was 18%; in the series on aged monkeys [4] (monkey #343), 13%; with aged monkeys [4] (monkey #444), 13%. The “Percent Improvement” value with aged monkeys [4] (monkey #445) is recorded as 20%; with aged monkeys [4] (monkey #446), 10%; with aged monkeys [4] (monkey #447), 20%; with aged monkeys [4] (monkey #448) it was 23%; with aged monkeys [4] (monkey #449), 20%. Further, the Optimal dose in the series with aged monkeys [4] (monkey #107) came out at 10 µg/kg; with aged monkeys [4] (monkey #113) it was 0.001 µg/kg; in the series on aged monkeys [4] (monkey #121), 0.001 µg/kg; with aged monkeys [4] (monkey #124) it was 0.1 µg/kg; in the series on aged monkeys [4] (monkey #343), 0.01 µg/kg; with aged monkeys [4] (monkey #444), 10 µg/kg. Besides, the Optimal dose in the series on aged monkeys [4] (monkey #445) was 1 µg/kg; in the series on aged monkeys [4] (monkey #446) it was 10 µg/kg; in the series on aged monkeys [4] (monkey #447), 1 µg/kg; with aged monkeys [4] (monkey #448) it was 0.01 µg/kg; in the series on aged monkeys [4] (monkey #449) it was 1 µg/kg.
Take `N[C@@H](Cc1ccc(O)c(O)c1)C(=O)O` [L-dopa]: the “effect on behavioral deficit” value in the series with rhesus monkeys is reported as “pharmacologically reversed”.
In the case of `Clc1cccc(Cl)c1N=C1NCCN1` [Clonidine, clonidine], the “drop in systolic blood pressure” value in the series on aged monkeys [1] was “greater than 50 mm Hg”. For the same compound, the “Systolic Blood Pressure, change” value in the series with aged monkeys [1] (dose .0001 mg/kg i.m.) is reported as -23 mm Hg; in the series on aged monkeys [1] (dose .001 mg/kg i.m.), -8 mm Hg; in the series on aged monkeys [1] (dose .01 mg/kg i.m.), -32 mm Hg; with aged monkeys [1] (dose .05 mg/kg i.m.), greater than -50 mm Hg. Moreover, the “Sedation Score (0-IV)” value is on record as 0 in the series on aged monkeys [2] (dose .0001 mg/kg i.m.), 0 in the series with aged monkeys [2] (dose .001 mg/kg i.m.) and “I” in the series on aged monkeys [2] (dose .01 mg/kg i.m.). In addition, the “Sedation Score” value with aged monkeys [2] (monkey #121, at individual optimal dose) was 0; in the series with aged monkeys [2] (monkey #445, at individual optimal dose), “I”; in the series on aged monkeys [2] (monkey #449, at individual optimal dose), 0. Besides, the inhibitory constant (Ki) at alpha-2R subtype [3] is 27.7 nM; on alpha-2I subtype it was 38.1 nM. The “effect on behavioral deficit” value in the series with rhesus monkeys is given as “pharmacologically reversed”. Further, the “aged monkeys with improved memory” value with aged monkeys [6] was 5/5; in the series with aged monkeys [4], 8. For the same compound, the “side effects at memory-enhancing doses” value in the series with aged monkeys [7] was “profound hypotension and sedation”. In the series with Korsakoff patients, the “effect on memory performance” value is on record as “improved memory performance”. Besides, in the series on Alzheimer patients, the side effects entry was “severe hypotension and sedation”. For the same compound, the “average optimal dose” value with aged monkeys [4] is 50 µg/kg. The effect on memory entry in the series with aged monkeys [4] (dose 0.0001 to 0.01 mg/kg) is “often impaired memory”. Also, the “Delayed Response Performance (% change from placebo control)” value in the series on aged monkeys [4] (setting [9]) is -6%; with aged monkeys [4] (setting [10]) it was “+3%”; with aged monkeys [4] (setting [11]), “+6%”; in the series on aged monkeys [4] (setting [12]), “+12%”. In addition, the “Percent Improvement” value is 27% in the series with aged monkeys [4] (monkey #107); 30% in the series with aged monkeys [4] (monkey #113); 17% with aged monkeys [4] (monkey #121); 23% with aged monkeys [4] (monkey #124); 30% with aged monkeys [4] (monkey #343); 25% in the series on aged monkeys [4] (monkey #444). Besides, the “Percent Improvement” value turned out to be 18% with aged monkeys [4] (monkey #445); 17% in the series with aged monkeys [4] (monkey #446); 23% in the series with aged monkeys [4] (monkey #447); 30% with aged monkeys [4] (monkey #448); 23% with aged monkeys [4] (monkey #449). In addition, the Optimal dose with aged monkeys [4] (monkey #107) was 10 µg/kg; in the series with aged monkeys [4] (monkey #113) it was 50 µg/kg; in the series on aged monkeys [4] (monkey #121), 5 µg/kg; in the series on aged monkeys [4] (monkey #124), 40 µg/kg; with aged monkeys [4] (monkey #343) it was 200 µg/kg; in the series with aged monkeys [4] (monkey #444) it was 30 µg/kg. Besides, the Optimal dose in the series with aged monkeys [4] (monkey #445) amounted to 40 µg/kg; with aged monkeys [4] (monkey #446) it was 80 µg/kg; in the series with aged monkeys [4] (monkey #447), 60 µg/kg; in the series with aged monkeys [4] (monkey #448), 70 µg/kg; with aged monkeys [4] (monkey #449), 1 µg/kg.
As for `C=CCN1CCc2nc(N)sc2CC1` [BHT-920], the “drop in systolic blood pressure” value with aged monkeys [1] is given as “greater than 50 mm Hg”. Moreover, the “Systolic Blood Pressure, change” value is -9 mm Hg with aged monkeys [1] (dose .0001 mg/kg i.m.), -8 mm Hg with aged monkeys [1] (dose .001 mg/kg i.m.), -37 mm Hg in the series on aged monkeys [1] (dose .01 mg/kg i.m.) and greater than -50 mm Hg in the series with aged monkeys [1] (dose .05 mg/kg i.m.). Besides, the “hypotensive effects compared with the other agonists” value with aged monkeys [1] (monkey #445, FIG. 3) is listed as “very similar to those of clonidine”. Besides, the “selectivity for the alpha-2R subtype” value in the series on alpha-2R subtype [8] was “two times more selective”. In addition, the Ki at alpha-2R subtype [3] is 62.2 nM; at alpha-2I subtype, 138 nM. In addition, the “average optimal dose” value in the series with aged monkeys [4] is 70 µg/kg. In addition, the “Delayed Response Performance (% change from placebo control)” value in the series on aged monkeys [4] (setting [9]) is 0%; with aged monkeys [4] (setting [10]) it was -3%; in the series on aged monkeys [4] (setting [11]) it was “+9%”; in the series on aged monkeys [4] (setting [12]), “+8%”; in the series with aged monkeys [4] (dose .08 mg/kg i.m. (equimolar clonidine dose)), “+15%”.
